The supplement of paper PMC3493320

System: NCI-H295R
Assay: IC50 (antiproliferative, ATP content)
Conditions: 48 h
Method in brief: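 Following overnight culture of adrenocortical carcinoma cells (1500 per well) in 1536-well plates with serum-free ITS-supplemented DMEM, library compounds were pin-transferred at 8 final concentrations from 0.6 nM to 46 µM. Incubation lasted 48 h at 37 °C, 5% CO2, and the CellTiter-Glo signal was read after 20 min at room temperature. Data were fitted with a four-parameter logistic model. Each IC50 came from that fit after normalisation to vehicle and positive-control wells, and compounds without a concentration response were reported as above the top dose.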

Row | IC50 | SMILES
1 | > 46 µM | Cc1nc[nH]c1CN1CCc2c(c3ccccc3n2C)C1=O.Cl
2 | > 46 µM | CN(CCO)CC(O)Cn1cnc2c1c(=O)n(C)c(=O)n2C.O=C(O)c1cccnc1 (stereo not drawn)
3 | > 46 µM | CC(=O)Nc1ccc(OC(C)=O)cc1
4 | > 46 µM | CCCCC(O)c1ccccc1 (stereo not drawn)
5 | > 46 µM | CC(C)(C)C(=O)NCCCC(=O)O
6 | > 46 µM | C=CCSCC1Nc2cc(Cl)c(S(N)(=O)=O)cc2S(=O)(=O)N1 (stereo not drawn)
7 | > 46 µM | O=C(CCCN1CCC(C(=O)c2ccc(F)cc2)CC1)c1ccc(F)cc1
8 | > 46 µM | O=C(NCCN1CCOCC1)c1ccc(Cl)cc1
9 | > 46 µM | CC(=O)N/N=C/c1ccc([N+](=O)[O-])o1
10 | > 46 µM | CCCN(CCC)S(=O)(=O)c1ccc(C(=O)O)cc1
11 | > 46 µM | C#CCOc1ccc2c(C)cc(=O)oc2c1
12 | > 46 µM | C[C@H]1c2cccc(O)c2C(=O)C2=C(O)[C@]3(O)C(=O)C(C(N)=O)=C(O)[C@@H](N(C)C)[C@@H]3[C@@H](O)[C@@H]21.Cl
13 | > 46 µM | NC(CNC([C@H](CC(C)C)N[C@]([C@@H]1CCCN1[C@]([C@H](CSSC[C@H](N)C(N[C@@H](CC3=CC=C(O)C=C3)C2=O)=O)NC([C@H](CC(N)=O)NC([C@@H](NC([C@](N2)([H])[C@@H](C)CC)=O)CCC(N)=O)=O)=O)=O)=O)=O)=O.O=C(C)O
14 | > 46 µM | NS(=O)(=O)c1cc2c(cc1Cl)NC(C1CC3C=CC1C3)NS2(=O)=O (stereo not drawn)
15 | > 46 µM | NCC[C@H](O)C(=O)N[C@@H]1C[C@H](N)[C@@H](O[C@H]2O[C@H](CN)[C@@H](O)[C@H](O)[C@H]2O)[C@H](O)[C@H]1O[C@H]1O[C@H](CO)[C@@H](O)[C@H](N)[C@H]1O
16 | > 46 µM | O=[C@](COC(C)=O)[C@](CC4)(O)[C@]2(C)[C@]4([H])[C@]1([H])CCC([C@@](C=C3)(C)[C@]([H])1[C@@H](O)C2)=CC3=O
17 | > 46 µM | CN(C)CC/C=C1/c2ccccc2COc2ccc(CC(=O)O)cc21.Cl
18 | > 46 µM | O=S([C@](CN1C=CN=N1)(C)[C@H]([C@]([O-])=O)N2C3=O)([C@@]([H])2C3)=O.[Na+]
19 | > 46 µM | CCCCC(CC)COC(=O)CC(C(=O)OCC(CC)CCCC)S(=O)(=O)[O-].[Na+] (stereo not drawn)
20 | > 46 µM | Cl.Cn1ccc2cc3c(cc21)CCN3C(=O)Nc1cccnc1
21 | > 46 µM | CCN(CC)CCCC(C)Nc1cc(C=Cc2ccccc2Cl)nc2cc(Cl)ccc12 (stereo not drawn)
22 | > 46 µM | Cl[C@H](CC4)[C@H](OC)C[C@@H]4/C=[C@](C)/[C@@H](OC([C@]2([H])CCCCN12)=O)[C@H](C)[C@@H](O)CC([C@H](CC)/C=C(C)/C[C@H](C)C[C@H](OC)[C@@]([C@@H](OC)C[C@H]3C)([H])O[C@@]3(O)C(C1=O)=O)=O
23 | > 46 µM | CCS(=O)(=O)CCn1c([N+](=O)[O-])cnc1C
24 | > 46 µM | CS(=O)(=O)CCNCc1ccc(-c2ccc3ncnc(Nc4ccc(OCc5cccc(F)c5)c(Cl)c4)c3c2)o1
25 | > 46 µM | CCCCCC[C@@H](O)C/C=C\CCCCCCCC(=O)[O-].[K+]
26 | > 46 µM | CCOC(=O)[C@H](CCc1ccccc1)N[C@@H](C)C(=O)N1[C@H](C(=O)O)C[C@@H]2CCC[C@@H]21

Row | IC50 | SMILES
27 | > 46 µM | Cl.O=S(=O)(c1cccc2cnccc12)N1CCCNCC1
28 | > 46 µM | CCCC(=O)Nc1ncnc2c1ncn2[C@@H]1O[C@@H]2COP(=O)(O)O[C@H]2[C@H]1OC(=O)CCC
29 | > 46 µM | OCC(O)CN1CCN(c2ccccc2)CC1 (stereo not drawn)
30 | > 46 µM | C[C@]12CCC(=O)C[C@@H]1CC[C@@H]1[C@@H]2CC[C@]2(C)C=CC[C@@H]12
31 | > 46 µM | c1ccc2sc(SN3CCOCC3)nc2c1
32 | > 46 µM | CC[N+](CC)(CC(=O)Nc1c(C)cccc1C)Cc1ccccc1.O=C([O-])c1ccccc1
33 | > 46 µM | O=C(CO)[C@@H](O)[C@H](O)[C@@H](O)C(=O)[O-].O=C(CO)[C@@H](O)[C@H](O)[C@@H](O)C(=O)[O-].[Ca+2]
34 | > 46 µM | CCN(CC)CCOc1ccccc1C(=O)CCc1ccccc1
35 | > 46 µM | Cl.NC1CCN(c2cccc(Cl)n2)CC1
36 | > 46 µM | CC1=Nc2ccc(Cl)cc2S(=O)(=O)N1
37 | > 46 µM | O=P([O-])([O-])OC[C@@]1(O)O[C@H](COP(=O)([O-])O)[C@@H](O)[C@@H]1O.[Na+].[Na+].[Na+]
38 | > 46 µM | CN1CCC[C@@H]1Cc1c[nH]c2ccc(CCS(=O)(=O)c3ccccc3)cc12
39 | > 46 µM | NC(=O)c1cc[n+](CC2=C(C(=O)[O-])N3C(=O)[C@@H](NC(=O)Cc4cccs4)[C@H]3SC2)cc1
40 | > 46 µM | CCCCCCCCCCCCCCCCOP(=O)([O-])OCC[N+](C)(C)C
41 | > 46 µM | CCC(=O)O[C@@H]1CC(=O)O[C@H](C)CC=CC=C[C@H](O)[C@H](C)C[C@H](CC=O)[C@H](O[C@@H]2O[C@H](C)[C@@H](O[C@H]3C[C@@](C)(O)[C@@H](OC(=O)CC)[C@H](C)O3)[C@H](N(C)C)[C@H]2O)[C@H]1OC
42 | > 46 µM | CCOC(N)=O
43 | > 46 µM | FC1=CC2=C(O[C@H]([C@@](N)=O)C[C@@]([C@@]3=O)2NC(N3)=O)C=C1
44 | > 46 µM | Cc1oncc1C(=O)Nc1ccc(C(F)(F)F)cc1
45 | > 46 µM | CN1C(=O)CC[C@H]1c1cccnc1
46 | > 46 µM | Clc1ccc(C(Cn2ccnc2)OCc2c(Cl)cccc2Cl)c(Cl)c1 (stereo not drawn)
47 | > 46 µM | CC(C)(C)CC(C)(C)c1ccc(OCCO)cc1
48 | > 46 µM | Nc1cc(N2CCCCC2)nc(N)[n+]1[O-]
49 | > 46 µM | Cc1cc(C(C)(C)C)cc(C)c1CC1=NCCN1.Cl
50 | > 46 µM | CCCCCCCCCCCC(=O)N(CCO)CCO
51 | > 46 µM | OC[C@H]1O[C@@H](O[C@H]2[C@H](O)[C@@H](O)[C@H](O)O[C@@H]2CO)[C@H](O)[C@@H](O)[C@@H]1O
52 | > 46 µM | CN/C(=N\C#N)NCCSCc1csc(N=C(N)N)n1

Row | IC50 | SMILES
53 | > 46 µM | CCC1(C)CC(=O)NC1=O (stereo not drawn)
54 | > 46 µM | CC(C)(C)C(=O)Oc1ccc(S(=O)(=O)Nc2ccccc2C(=O)NCC(=O)[O-])cc1.O.O.O.O.[Na+]
55 | > 46 µM | O=C(N1C)N[C@](C1=O)([C@@]2=CC=CC=C2)CC
56 | > 46 µM | O=C(NCCCN1CCOCC1)c1ccc(Cl)cc1
57 | > 46 µM | CCCCN(CCCC)CCCOC(=O)c1ccc(N)cc1
58 | > 46 µM | O=C(O)CP(=O)(O)O
59 | > 46 µM | CCCOC(=O)c1ccc(O)cc1
60 | > 46 µM | N=C\2/N=C3/O[C@H]1[C@H](O)[C@@H](CO)O[C@H]1N3/C=C/2
61 | > 46 µM | CCN(CC)CCOc1ccccc1OC
62 | > 46 µM | N#Cc1ccc(C(c2ccc(C#N)cc2)n2cncn2)cc1
63 | > 46 µM | C[C@@H](CN1CC(=O)NC(=O)C1)N1CC(=O)NC(=O)C1
64 | > 46 µM | COc1ccccc1OCC(O)CN1CCN(CC(=O)Nc2c(C)cccc2C)CC1 (stereo not drawn)
65 | > 46 µM | Cc1c(O)c(=O)ccn1C
66 | > 46 µM | COc1ccccc1N1CCN(CC(O)COc2cccc3ccccc23)CC1 (stereo not drawn)
67 | > 46 µM | CCCCC1C(=O)N(c2ccccc2)N(c2ccccc2)C1=O
68 | > 46 µM | CCCCOc1ccc(OCCCN2CCOCC2)cc1.Cl
69 | > 46 µM | Nc1nc(=O)c2c([nH]1)NCC(CNc1ccc(C(=O)N[C@@H](CCC(=O)[O-])C(=O)[O-])cc1)N2C=O.[Ca+2] (stereo partly drawn)
70 | > 46 µM | CC1(C)OC(=O)NC1=O
71 | > 46 µM | C=C1c2cccc(O)c2C(=O)C2=C(O)[C@]3(O)C(=O)C(C(N)=O)=C(O)[C@@H](N(C)C)[C@@H]3[C@@H](O)[C@H]12.Cl
72 | > 46 µM | CCOC(=O)c1cccnc1
73 | > 46 µM | NC(=O)N1c2ccccc2C=Cc2ccccc21
74 | > 46 µM | CS(=O)(=O)OCCCCOS(C)(=O)=O
75 | > 46 µM | O=C(Nc1ccc(O)cc1)c1ccccc1O
76 | > 46 µM | CCCCCCCCOc1ccc(C(=O)c2ccccc2)c(O)c1

Row | SMILES | IC50
77 | O=C(NC(=O)c1c(F)cccc1F)Nc1cc(Cl)c(OC(F)(F)C(F)C(F)(F)F)cc1Cl (stereo not drawn) | > 46 µM
78 | COc1cc(NC(C)CCCN)c2ncccc2c1.O=P(O)(O)O.O=P(O)(O)O (stereo not drawn) | > 46 µM
79 | O=C(O)C(Cl)(Cl)Cl | > 46 µM
80 | COc1ccc(OC)c(C(O)C(C)N)c1.Cl (stereo not drawn) | > 46 µM
81 | [C@@]153[C@@H](\C(O)=C(/C[C@@]1([C@H]2CC[C@]4([C@H]([C@@H]2CC3)CC[C@@H]4O)C)C)C#N)O5 | > 46 µM
82 | O=C(C2=CC=CC=C2)O[C@H]1C[C@H](CC3)N(C)[C@H]3[C@H]1[C@@](O)=O | > 46 µM
83 | CCC1(CC)C(=O)NC(=O)N(C)C1=O | > 46 µM
84 | C#CCOC(C(=O)OCCN(C)C)(c1ccccc1)c1ccccc1.Cl | > 46 µM
85 | O=C(O)/C=C\C(=O)O.O=C(O)/C=C\C(=O)O.c1cc(CN2CCCCC2)cc(OCCCNc2nc3ccccc3s2)c1 | > 46 µM
86 | CCN(CC)CCOC(=O)C(O)(c1ccccc1)c1ccccc1 | > 46 µM
87 | CNC(=O)OCC[N+](C)(C)C.[Cl-] | > 46 µM
88 | [O]=[Cd] | > 46 µM
89 | c1ccc2c(c1)sc1ccccc12 | > 46 µM
90 | CC(C)(C)OC(=O)c1ncn2c1[C@@H]1CCCN1C(=O)c1c(Br)cccc1-2 | > 46 µM
91 | CCOP(=S)(OCC)Oc1ccc2c(C)c(Cl)c(=O)oc2c1 | > 46 µM
92 | O.O=P1(N(CCCl)CCCl)NCCCO1 (stereo not drawn) | > 46 µM
93 | C[C@]43CCC(=O)\C=C4\CC[C@@H]1[C@@H]3CC[C@]2(C)[C@@](O)(CC[C@@H]12)C#C | > 46 µM
94 | COC1=CC=C2[C@H]3Cc4ccc(OC)c5c4[C@@]2(CCN3C)[C@H]1O5 | > 46 µM
95 | C=C[C@H]1C[N@@]2CC[C@H]1C[C@H]2[C@H](OC(=O)OCC)c1ccnc2ccc(OC)cc12 | > 46 µM
96 | CCN(CCCc1ccccc1)CCCc1ccccc1.O=C(O)CC(O)(CC(=O)O)C(=O)O | > 46 µM
97 | COCC(C)N(C(=O)CCl)c1c(C)csc1C (stereo not drawn) | > 46 µM
98 | Cl.NCC(O)c1cccc(O)c1 (stereo not drawn) | > 46 µM
